PubChem BioAssay (NCI)
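96-well plates; 48 h exposure; 5 concentrations. Endpoints by linear interpolation between flanking doses. Not reached: highest tested concentration assigned. The concentration for full growth arrest is given as TGI.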

The molecules below were run on CCRF-CEM leukemia (assay: growth of human tumour cells (NCI), 48 h).

Structure (SMILES) | TGI
O=[N+]([O-])C[C@@]12O[C@]3(O)C4C5CC(C6C5C3C61)C42 (stereo not given in full) | > 100 µM
C=C(Cl)C(=CCl)CCC(Br)C(C)(C)Cl (mixture of isomers) | 6.89 µM
CN1C(=O)c2ccccc2OC12C=Cc1c(ccc3ccccc13)O2 (stereo not given) | > 29.6 µM
CCCC(=O)NC(NC1CCCCC1)(C(=O)OCC)C(F)(F)F (stereo not given) | > 100 µM
Cc1ccc2c(c1)C(=S)N1CSCC1c1nncn1-2 (stereo not given) | > 100 µM
CC(C)NC(=O)OCc1c(COC(=O)NC(C)C)c(-c2cc[n+](COC(=O)C3CC3)cc2)n2c1CCC2 | > 100 µM
COC(=O)C1=C(C(=O)OC)N(c2ccc(OC)cc2[N+](=O)[O-])C(c2ccc(C)cc2)=CC1c1ccc(OC)cc1OC (stereo not given) | > 32.4 µM
COc1cccc(C2c3cc4c(cc3OC(N3CCCCC3)C2C)OCO4)c1O (stereo not given) | 13.9 µM
CN(CCSCCN(C)C(=O)OC(C)(C)C)C(=O)OC(C)(C)C | > 100 µM
CC1=C(C)CC2C(=O)N(c3cc(C(C)(C)C)ccc3C(C)(C)C)C(=O)C2C1 (stereo not given) | > 100 µM
O=c1[nH]nnc2c1sc1ncccc12 | > 100 µM
Cc1ccc(C2SCC(=O)N2c2ccc(-n3c(-c4ccccc4)nc4ccccc4c3=O)cc2)cc1 (stereo not given) | > 100 µM
O=[N+]([O-])c1ccc(CN(CCCl)OCCCl)cc1 | > 100 µM
CC1=NN(c2nc(N)nc(/C(C#N)=C\c3ccc([N+](=O)[O-])s3)n2)C(C)(C)C1 | 0.0942 µM
O=c1[nH]cnc2c1cnn2Cc1cn(CCCCO)nn1 | > 100 µM
CN1CCc2c([nH]c3ccccc23)C1 | > 100 µM
CC(C)(C)OC(=O)N(CCCCN(CCCNC(=O)C(F)(F)F)C(=O)OC(C)(C)C)CCCNC(=O)C(F)(F)F | > 100 µM
CCOC1(OCC)C2C=CC1C(COS(=O)(=O)c1ccc(C)cc1)C2COS(=O)(=O)c1ccc(C)cc1 (stereo not given) | > 100 µM
Cc1[nH]c(=O)nc2nc3ccc(Cl)cc3c(NCCNCCO)c12 | 28.1 µM

Each molecule was assayed on NCI-H522 lung (assay: growth of human tumour cells (NCI), 48 h).

Structure (SMILES) | TGI
O=[N+]([O-])C[C@@]12O[C@]3(O)C4C5CC(C6C5C3C61)C42 (stereo not given in full) | > 100 µM
C=C(Cl)C(=CCl)CCC(Br)C(C)(C)Cl (mixture of isomers) | > 10 µM
CN1C(=O)c2ccccc2OC12C=Cc1c(ccc3ccccc13)O2 (stereo not given) | 6.27 µM
CCCC(=O)NC(NC1CCCCC1)(C(=O)OCC)C(F)(F)F (stereo not given) | > 100 µM
Cc1ccc2c(c1)C(=S)N1CSCC1c1nncn1-2 (stereo not given) | > 100 µM
CC(C)NC(=O)OCc1c(COC(=O)NC(C)C)c(-c2cc[n+](COC(=O)C3CC3)cc2)n2c1CCC2 | > 100 µM
COC(=O)C1=C(C(=O)OC)N(c2ccc(OC)cc2[N+](=O)[O-])C(c2ccc(C)cc2)=CC1c1ccc(OC)cc1OC (stereo not given) | 57.5 µM
COc1cccc(C2c3cc4c(cc3OC(N3CCCCC3)C2C)OCO4)c1O (stereo not given) | 8.53 µM
CN(CCSCCN(C)C(=O)OC(C)(C)C)C(=O)OC(C)(C)C | > 100 µM
CC1=C(C)CC2C(=O)N(c3cc(C(C)(C)C)ccc3C(C)(C)C)C(=O)C2C1 (stereo not given) | 23.9 µM
O=c1[nH]nnc2c1sc1ncccc12 | > 100 µM
Cc1ccc(C2SCC(=O)N2c2ccc(-n3c(-c4ccccc4)nc4ccccc4c3=O)cc2)cc1 (stereo not given) | 58.6 µM
O=[N+]([O-])c1ccc(CN(CCCl)OCCCl)cc1 | > 100 µM
CC1=NN(c2nc(N)nc(/C(C#N)=C\c3ccc([N+](=O)[O-])s3)n2)C(C)(C)C1 | 0.354 µM
O=c1[nH]cnc2c1cnn2Cc1cn(CCCCO)nn1 | > 100 µM
CN1CCc2c([nH]c3ccccc23)C1 | > 100 µM
CC(C)(C)OC(=O)N(CCCCN(CCCNC(=O)C(F)(F)F)C(=O)OC(C)(C)C)CCCNC(=O)C(F)(F)F | > 100 µM
CCOC1(OCC)C2C=CC1C(COS(=O)(=O)c1ccc(C)cc1)C2COS(=O)(=O)c1ccc(C)cc1 (stereo not given) | 57.1 µM
Cc1[nH]c(=O)nc2nc3ccc(Cl)cc3c(NCCNCCO)c12 | 12.9 µM

What follows are molecules tested on UACC-257 melanoma (assay: growth of human tumour cells (NCI), 48 h).

Structure (SMILES) | TGI
O=[N+]([O-])C[C@@]12O[C@]3(O)C4C5CC(C6C5C3C61)C42 (stereo not given in full) | > 100 µM
C=C(Cl)C(=CCl)CCC(Br)C(C)(C)Cl (mixture of isomers) | > 10 µM
CN1C(=O)c2ccccc2OC12C=Cc1c(ccc3ccccc13)O2 (stereo not given) | 36.3 µM
CCCC(=O)NC(NC1CCCCC1)(C(=O)OCC)C(F)(F)F (stereo not given) | > 100 µM
Cc1ccc2c(c1)C(=S)N1CSCC1c1nncn1-2 (stereo not given) | > 100 µM
CC(C)NC(=O)OCc1c(COC(=O)NC(C)C)c(-c2cc[n+](COC(=O)C3CC3)cc2)n2c1CCC2 | > 100 µM
COC(=O)C1=C(C(=O)OC)N(c2ccc(OC)cc2[N+](=O)[O-])C(c2ccc(C)cc2)=CC1c1ccc(OC)cc1OC (stereo not given) | > 100 µM
COc1cccc(C2c3cc4c(cc3OC(N3CCCCC3)C2C)OCO4)c1O (stereo not given) | > 56.6 µM
CN(CCSCCN(C)C(=O)OC(C)(C)C)C(=O)OC(C)(C)C | > 100 µM
CC1=C(C)CC2C(=O)N(c3cc(C(C)(C)C)ccc3C(C)(C)C)C(=O)C2C1 (stereo not given) | > 100 µM
O=c1[nH]nnc2c1sc1ncccc12 | > 100 µM
Cc1ccc(C2SCC(=O)N2c2ccc(-n3c(-c4ccccc4)nc4ccccc4c3=O)cc2)cc1 (stereo not given) | 69.8 µM
O=[N+]([O-])c1ccc(CN(CCCl)OCCCl)cc1 | > 100 µM
CC1=NN(c2nc(N)nc(/C(C#N)=C\c3ccc([N+](=O)[O-])s3)n2)C(C)(C)C1 | 0.544 µM
O=c1[nH]cnc2c1cnn2Cc1cn(CCCCO)nn1 | > 100 µM
CN1CCc2c([nH]c3ccccc23)C1 | > 100 µM
CC(C)(C)OC(=O)N(CCCCN(CCCNC(=O)C(F)(F)F)C(=O)OC(C)(C)C)CCCNC(=O)C(F)(F)F | > 100 µM
CCOC1(OCC)C2C=CC1C(COS(=O)(=O)c1ccc(C)cc1)C2COS(=O)(=O)c1ccc(C)cc1 (stereo not given) | 62.2 µM
Cc1[nH]c(=O)nc2nc3ccc(Cl)cc3c(NCCNCCO)c12 | 25 µM

The molecules below were run on SR leukemia (assay: growth of human tumour cells (NCI), 48 h).

Structure (SMILES) | TGI
O=[N+]([O-])C[C@@]12O[C@]3(O)C4C5CC(C6C5C3C61)C42 (stereo not given in full) | > 100 µM
C=C(Cl)C(=CCl)CCC(Br)C(C)(C)Cl (mixture of isomers) | > 10 µM
CN1C(=O)c2ccccc2OC12C=Cc1c(ccc3ccccc13)O2 (stereo not given) | > 100 µM
CCCC(=O)NC(NC1CCCCC1)(C(=O)OCC)C(F)(F)F (stereo not given) | > 100 µM
Cc1ccc2c(c1)C(=S)N1CSCC1c1nncn1-2 (stereo not given) | > 100 µM
CC(C)NC(=O)OCc1c(COC(=O)NC(C)C)c(-c2cc[n+](COC(=O)C3CC3)cc2)n2c1CCC2 | > 100 µM
COC(=O)C1=C(C(=O)OC)N(c2ccc(OC)cc2[N+](=O)[O-])C(c2ccc(C)cc2)=CC1c1ccc(OC)cc1OC (stereo not given) | 27.7 µM
COc1cccc(C2c3cc4c(cc3OC(N3CCCCC3)C2C)OCO4)c1O (stereo not given) | 11.8 µM
CN(CCSCCN(C)C(=O)OC(C)(C)C)C(=O)OC(C)(C)C | > 100 µM
CC1=C(C)CC2C(=O)N(c3cc(C(C)(C)C)ccc3C(C)(C)C)C(=O)C2C1 (stereo not given) | > 100 µM
O=c1[nH]nnc2c1sc1ncccc12 | > 100 µM
Cc1ccc(C2SCC(=O)N2c2ccc(-n3c(-c4ccccc4)nc4ccccc4c3=O)cc2)cc1 (stereo not given) | > 100 µM
O=[N+]([O-])c1ccc(CN(CCCl)OCCCl)cc1 | > 100 µM
CC1=NN(c2nc(N)nc(/C(C#N)=C\c3ccc([N+](=O)[O-])s3)n2)C(C)(C)C1 | 0.152 µM
O=c1[nH]cnc2c1cnn2Cc1cn(CCCCO)nn1 | > 100 µM
CN1CCc2c([nH]c3ccccc23)C1 | > 100 µM
CC(C)(C)OC(=O)N(CCCCN(CCCNC(=O)C(F)(F)F)C(=O)OC(C)(C)C)CCCNC(=O)C(F)(F)F | > 100 µM
CCOC1(OCC)C2C=CC1C(COS(=O)(=O)c1ccc(C)cc1)C2COS(=O)(=O)c1ccc(C)cc1 (stereo not given) | 58.6 µM
Cc1[nH]c(=O)nc2nc3ccc(Cl)cc3c(NCCNCCO)c12 | > 100 µM

These molecules were tested on HCT-15 colon (assay: growth of human tumour cells (NCI), 48 h).

Structure (SMILES) | TGI
O=[N+]([O-])C[C@@]12O[C@]3(O)C4C5CC(C6C5C3C61)C42 (stereo not given in full) | > 100 µM
C=C(Cl)C(=CCl)CCC(Br)C(C)(C)Cl (mixture of isomers) | > 10 µM
CN1C(=O)c2ccccc2OC12C=Cc1c(ccc3ccccc13)O2 (stereo not given) | > 25.5 µM
CCCC(=O)NC(NC1CCCCC1)(C(=O)OCC)C(F)(F)F (stereo not given) | > 100 µM
Cc1ccc2c(c1)C(=S)N1CSCC1c1nncn1-2 (stereo not given) | > 100 µM
CC(C)NC(=O)OCc1c(COC(=O)NC(C)C)c(-c2cc[n+](COC(=O)C3CC3)cc2)n2c1CCC2 | > 100 µM
COC(=O)C1=C(C(=O)OC)N(c2ccc(OC)cc2[N+](=O)[O-])C(c2ccc(C)cc2)=CC1c1ccc(OC)cc1OC (stereo not given) | 57.9 µM
COc1cccc(C2c3cc4c(cc3OC(N3CCCCC3)C2C)OCO4)c1O (stereo not given) | 19.9 µM
CN(CCSCCN(C)C(=O)OC(C)(C)C)C(=O)OC(C)(C)C | > 100 µM
CC1=C(C)CC2C(=O)N(c3cc(C(C)(C)C)ccc3C(C)(C)C)C(=O)C2C1 (stereo not given) | > 100 µM
O=c1[nH]nnc2c1sc1ncccc12 | > 100 µM
Cc1ccc(C2SCC(=O)N2c2ccc(-n3c(-c4ccccc4)nc4ccccc4c3=O)cc2)cc1 (stereo not given) | 52 µM
O=[N+]([O-])c1ccc(CN(CCCl)OCCCl)cc1 | > 100 µM
CC1=NN(c2nc(N)nc(/C(C#N)=C\c3ccc([N+](=O)[O-])s3)n2)C(C)(C)C1 | 0.325 µM
